Structures are written as SMILES.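 Following 48 hours of exposure in 96-well plates, responses at five concentrations were used to interpolate endpoints linearly. The concentration for full growth arrest is given as TGI.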

The subject of the first experiment is HOP-62 NSCLC. In words: NCI-60 cell line screen, 48 h.
For `Cc1cccc(C[C@@]2(SCc3ccccc3)C(C)(C)[C@@H]3CC[C@@]2(C)C3)n1`, the TGI came to 60.2 µM.

`O=C1/C(=C/c2ccc([N+](=O)[O-])cc2)CNC/C1=C\c1ccc([N+](=O)[O-])cc1`: the TGI is 15.9 µM.

On to `O=C1/C(=C/c2ccc(F)cc2)CNC/C1=C\c1ccc(F)cc1`, for which the TGI was found to be 4.56 µM.

Turning to `C/C(=N/NC(=S)Nc1cccc(C)c1)c1ccccn1`, the TGI came out at 4.98 µM.

As to `CC1CC(C#N)=C2NCCCCN2C1=O` (centres undefined), the TGI is more than 100 µM.

The compound `O=C(O)c1ccc(NS(=O)(=O)Cc2ccccc2)cc1` came in with a TGI of more than 100 µM.

In turn, `Cc1ccc(C2=Nc3c(c(C)nn3-c3ccccc3)N=C(C(=O)O)C2)cc1` showed a TGI of more than 10 µM.

`Cc1ccc(C(=O)Nc2ccc(CP(=O)(O)O)cc2)cc1NC(=O)c1cccc(NC(=O)Nc2cccc(C(=O)Nc3cc(C(=O)Nc4ccc(CP(=O)(O)O)cc4)ccc3C)c2)c1` yielded a TGI of more than 100 µM.

Take `O=C1C(Br)=Cc2c(Cl)sc(Cl)c21`: the TGI worked out at 28.6 µM.

Take `O=[N+]([O-])C(=C(Sc1ccccc1)Sc1ccccc1)C(Cl)=C(Cl)Cl`: the TGI amounted to 4.09 µM.

For the compound `CCOC(=O)C1C(=O)CC(O)(c2ccccc2)C(C(=O)OCC)C1c1ccc(OC)cc1` (centres undefined), the TGI is more than 100 µM.

Take `CC(=O)CC(=O)c1cc2c(=O)oc(C)cc2oc1=O`: the TGI is more than 37.5 µM.

As for `COC(=O)CCCC(=O)C(=Nc1c(Cl)cccc1Cl)NNc1ccc(Cl)cc1`, the TGI was more than 100 µM.

Compound `C=CC/C(C(=O)OC)=C(/C(=O)OC)N(CCC)CCC` came in with a TGI of more than 100 µM.

Another experiment deals with KM12 colon. Put plainly: NCI-60 cell line screen, 48 h.
Compound `Cc1cccc(C[C@@]2(SCc3ccccc3)C(C)(C)[C@@H]3CC[C@@]2(C)C3)n1` had a TGI of 36.9 µM.

On to `O=C1/C(=C/c2ccc([N+](=O)[O-])cc2)CNC/C1=C\c1ccc([N+](=O)[O-])cc1`, for which the TGI is 4.41 µM.

As for `O=C1/C(=C/c2ccc(F)cc2)CNC/C1=C\c1ccc(F)cc1`, the TGI stood at 1.59 µM.

In turn, `C/C(=N/NC(=S)Nc1cccc(C)c1)c1ccccn1` yielded a TGI of 4.12 µM.

Compound `CC1CC(C#N)=C2NCCCCN2C1=O` (centres undefined) gave a TGI of more than 100 µM.

As to `O=C(O)c1ccc(NS(=O)(=O)Cc2ccccc2)cc1`, the TGI was more than 100 µM.

`Cc1ccc(C2=Nc3c(c(C)nn3-c3ccccc3)N=C(C(=O)O)C2)cc1` had a TGI of more than 10 µM.

Consider `Cc1ccc(C(=O)Nc2ccc(CP(=O)(O)O)cc2)cc1NC(=O)c1cccc(NC(=O)Nc2cccc(C(=O)Nc3cc(C(=O)Nc4ccc(CP(=O)(O)O)cc4)ccc3C)c2)c1`, for which the TGI is more than 100 µM.

`O=C1C(Br)=Cc2c(Cl)sc(Cl)c21` gave a TGI of 20.3 µM.

For `O=[N+]([O-])C(=C(Sc1ccccc1)Sc1ccccc1)C(Cl)=C(Cl)Cl`, the TGI came out at 7.03 µM.

Turning to `CCOC(=O)C1C(=O)CC(O)(c2ccccc2)C(C(=O)OCC)C1c1ccc(OC)cc1` (centres undefined), the TGI turned out to be 39.8 µM.

`CC(=O)CC(=O)c1cc2c(=O)oc(C)cc2oc1=O` registered a TGI of more than 37.5 µM.

In turn, `COC(=O)CCCC(=O)C(=Nc1c(Cl)cccc1Cl)NNc1ccc(Cl)cc1` had a TGI of more than 100 µM.

`C=CC/C(C(=O)OC)=C(/C(=O)OC)N(CCC)CCC`: the TGI was more than 100 µM.

The subject of a further experiment is SK-MEL-5 melanoma. Put plainly: NCI-60 cell line screen, 48 h.
Compound `Cc1cccc(C[C@@]2(SCc3ccccc3)C(C)(C)[C@@H]3CC[C@@]2(C)C3)n1` came in with a TGI of 29.4 µM.

`O=C1/C(=C/c2ccc([N+](=O)[O-])cc2)CNC/C1=C\c1ccc([N+](=O)[O-])cc1`: the TGI came out at 25.3 µM.

With `O=C1/C(=C/c2ccc(F)cc2)CNC/C1=C\c1ccc(F)cc1`, the TGI is 3.02 µM.

`C/C(=N/NC(=S)Nc1cccc(C)c1)c1ccccn1` returned a TGI of 1.6 µM.

On to `CC1CC(C#N)=C2NCCCCN2C1=O` (centres undefined), for which the TGI is more than 100 µM.

The compound `O=C(O)c1ccc(NS(=O)(=O)Cc2ccccc2)cc1` came in with a TGI of more than 100 µM.

`Cc1ccc(C2=Nc3c(c(C)nn3-c3ccccc3)N=C(C(=O)O)C2)cc1`: the TGI is more than 10 µM.

As to `Cc1ccc(C(=O)Nc2ccc(CP(=O)(O)O)cc2)cc1NC(=O)c1cccc(NC(=O)Nc2cccc(C(=O)Nc3cc(C(=O)Nc4ccc(CP(=O)(O)O)cc4)ccc3C)c2)c1`, the TGI was more than 100 µM.

Regarding `O=C1C(Br)=Cc2c(Cl)sc(Cl)c21`, the TGI is more than 53.7 µM.

The compound `O=[N+]([O-])C(=C(Sc1ccccc1)Sc1ccccc1)C(Cl)=C(Cl)Cl` had a TGI of 3.58 µM.

In turn, `CCOC(=O)C1C(=O)CC(O)(c2ccccc2)C(C(=O)OCC)C1c1ccc(OC)cc1` (centres undefined) returned a TGI of more than 100 µM.

`CC(=O)CC(=O)c1cc2c(=O)oc(C)cc2oc1=O` registered a TGI of more than 37.5 µM.

`COC(=O)CCCC(=O)C(=Nc1c(Cl)cccc1Cl)NNc1ccc(Cl)cc1` displayed a TGI of more than 90.9 µM.

`C=CC/C(C(=O)OC)=C(/C(=O)OC)N(CCC)CCC`: the TGI is more than 100 µM.

Another experiment deals with HL-60(TB) leukemia. Put plainly: NCI-60 cell line screen, 48 h.
In turn, `Cc1cccc(C[C@@]2(SCc3ccccc3)C(C)(C)[C@@H]3CC[C@@]2(C)C3)n1` gave a TGI of 29.7 µM.

For the compound `O=C1/C(=C/c2ccc([N+](=O)[O-])cc2)CNC/C1=C\c1ccc([N+](=O)[O-])cc1`, the TGI came to 10 µM.

For `O=C1/C(=C/c2ccc(F)cc2)CNC/C1=C\c1ccc(F)cc1`, the TGI is more than 100 µM.

Regarding `C/C(=N/NC(=S)Nc1cccc(C)c1)c1ccccn1`, the TGI was less than 0.158 µM.

In turn, `CC1CC(C#N)=C2NCCCCN2C1=O` (centres undefined) had a TGI of more than 100 µM.

On to `O=C(O)c1ccc(NS(=O)(=O)Cc2ccccc2)cc1`, for which the TGI is more than 100 µM.

As to `Cc1ccc(C2=Nc3c(c(C)nn3-c3ccccc3)N=C(C(=O)O)C2)cc1`, the TGI was more than 10 µM.

For the compound `Cc1ccc(C(=O)Nc2ccc(CP(=O)(O)O)cc2)cc1NC(=O)c1cccc(NC(=O)Nc2cccc(C(=O)Nc3cc(C(=O)Nc4ccc(CP(=O)(O)O)cc4)ccc3C)c2)c1`, the TGI is more than 100 µM.

`O=C1C(Br)=Cc2c(Cl)sc(Cl)c21` came in with a TGI of 6.3 µM.

In turn, `O=[N+]([O-])C(=C(Sc1ccccc1)Sc1ccccc1)C(Cl)=C(Cl)Cl` showed a TGI of 0.813 µM.

`CCOC(=O)C1C(=O)CC(O)(c2ccccc2)C(C(=O)OCC)C1c1ccc(OC)cc1` (centres undefined): the TGI was more than 47.8 µM.

For the compound `CC(=O)CC(=O)c1cc2c(=O)oc(C)cc2oc1=O`, the TGI was more than 37.5 µM.

Regarding `COC(=O)CCCC(=O)C(=Nc1c(Cl)cccc1Cl)NNc1ccc(Cl)cc1`, the TGI was more than 100 µM.

`C=CC/C(C(=O)OC)=C(/C(=O)OC)N(CCC)CCC` showed a TGI of 64.4 µM.

A further experiment has as its system MCF7 breast. In words: NCI-60 cell line screen, 48 h.
With `Cc1cccc(C[C@@]2(SCc3ccccc3)C(C)(C)[C@@H]3CC[C@@]2(C)C3)n1`, the TGI was found to be 26.8 µM.

As for `O=C1/C(=C/c2ccc([N+](=O)[O-])cc2)CNC/C1=C\c1ccc([N+](=O)[O-])cc1`, the TGI is more than 100 µM.

As for `O=C1/C(=C/c2ccc(F)cc2)CNC/C1=C\c1ccc(F)cc1`, the TGI was 8.83 µM.

For `C/C(=N/NC(=S)Nc1cccc(C)c1)c1ccccn1`, the TGI came out at 0.224 µM.

As for `CC1CC(C#N)=C2NCCCCN2C1=O` (centres undefined), the TGI was more than 100 µM.

On to `O=C(O)c1ccc(NS(=O)(=O)Cc2ccccc2)cc1`, for which the TGI was more than 100 µM.

Consider `Cc1ccc(C2=Nc3c(c(C)nn3-c3ccccc3)N=C(C(=O)O)C2)cc1`, for which the TGI is more than 10 µM.

For the compound `Cc1ccc(C(=O)Nc2ccc(CP(=O)(O)O)cc2)cc1NC(=O)c1cccc(NC(=O)Nc2cccc(C(=O)Nc3cc(C(=O)Nc4ccc(CP(=O)(O)O)cc4)ccc3C)c2)c1`, the TGI was more than 100 µM.

`O=C1C(Br)=Cc2c(Cl)sc(Cl)c21` registered a TGI of 11.5 µM.

`O=[N+]([O-])C(=C(Sc1ccccc1)Sc1ccccc1)C(Cl)=C(Cl)Cl` registered a TGI of 1.05 µM.

In the case of `CCOC(=O)C1C(=O)CC(O)(c2ccccc2)C(C(=O)OCC)C1c1ccc(OC)cc1` (centres undefined), the TGI is more than 100 µM.

With `CC(=O)CC(=O)c1cc2c(=O)oc(C)cc2oc1=O`, the TGI was more than 37.5 µM.

`COC(=O)CCCC(=O)C(=Nc1c(Cl)cccc1Cl)NNc1ccc(Cl)cc1` came in with a TGI of more than 100 µM.

`C=CC/C(C(=O)OC)=C(/C(=O)OC)N(CCC)CCC`: the TGI was more than 100 µM.

Another experiment concerns DU-145 prostate. In words: NCI-60 cell line screen, 48 h.
Consider `Cc1cccc(C[C@@]2(SCc3ccccc3)C(C)(C)[C@@H]3CC[C@@]2(C)C3)n1`, for which the TGI worked out at 32.2 µM.

Regarding `O=C1/C(=C/c2ccc([N+](=O)[O-])cc2)CNC/C1=C\c1ccc([N+](=O)[O-])cc1`, the TGI was found to be 35.6 µM.

Take `O=C1/C(=C/c2ccc(F)cc2)CNC/C1=C\c1ccc(F)cc1`: the TGI came to 3.96 µM.

Turning to `C/C(=N/NC(=S)Nc1cccc(C)c1)c1ccccn1`, the TGI worked out at 8.29 µM.

`CC1CC(C#N)=C2NCCCCN2C1=O` (centres undefined) came in with a TGI of more than 100 µM.

As to `O=C(O)c1ccc(NS(=O)(=O)Cc2ccccc2)cc1`, the TGI is more than 100 µM.

The compound `Cc1ccc(C2=Nc3c(c(C)nn3-c3ccccc3)N=C(C(=O)O)C2)cc1` showed a TGI of more than 10 µM.

For `Cc1ccc(C(=O)Nc2ccc(CP(=O)(O)O)cc2)cc1NC(=O)c1cccc(NC(=O)Nc2cccc(C(=O)Nc3cc(C(=O)Nc4ccc(CP(=O)(O)O)cc4)ccc3C)c2)c1`, the TGI was more than 100 µM.

In turn, `O=C1C(Br)=Cc2c(Cl)sc(Cl)c21` had a TGI of 18 µM.

The compound `O=[N+]([O-])C(=C(Sc1ccccc1)Sc1ccccc1)C(Cl)=C(Cl)Cl` gave a TGI of 3.43 µM.

On to `CCOC(=O)C1C(=O)CC(O)(c2ccccc2)C(C(=O)OCC)C1c1ccc(OC)cc1` (centres undefined), for which the TGI was more than 100 µM.

In the case of `CC(=O)CC(=O)c1cc2c(=O)oc(C)cc2oc1=O`, the TGI was more than 37.5 µM.

Turning to `COC(=O)CCCC(=O)C(=Nc1c(Cl)cccc1Cl)NNc1ccc(Cl)cc1`, the TGI was more than 100 µM.

The compound `C=CC/C(C(=O)OC)=C(/C(=O)OC)N(CCC)CCC` returned a TGI of more than 100 µM.
